According to patent US10906873B2, “Substituted cyclic amides as herbicides” (FMC Corporation, priority 2015, dated 2021):

Tests used:
[1] = tested on: pigweed (Amaranthus retroflexus); test: Test A postemergence, pigweed; format: in vivo; settings: 1000 g ai/ha, 0 to 100 scale
Method in brief: (§1)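 Visual injury rating, 0–100 scale (100 = complete control), ~10 d after treatment, relative to untreated controls. Greenhouse pots, loam soil/sand; compound in solvent mix with surfactant applied as soil spray preemergence or foliar postemergence at 1–2-leaf stage.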

[2] = tested on: foxtail, giant (giant foxtail, Setaria faberii); test: Test A preemergence, foxtail, giant; format: in vivo; settings: 1000 g ai/ha, 0 to 100 scale
Method in brief: as §1

[3] = tested on: morningglory (Ipomoea spp.); test: Test A preemergence, morningglory; format: in vivo; settings: 1000 g ai/ha, 0 to 100 scale
Excerpt: (§2) Seeds of plant species selected from barnyardgrass (Echinochloa crus-galli), crabgrass (large crabgrass, Digitaria sanguinalis), kochia (Kochia scoparia), ragweed (common ragweed, Ambrosia elatior), morningglory (Ipomoea spp.), velvetleaf (Abutilon theophrasti), ryegrass, It. (Italian ryegrass, Lolium multiflorum), foxtail, giant (giant foxtail, Setaria faberii), wheat (Triticum aestivum), corn (Zea mays), and pigweed (Amaranthus retroflexus), were planted into a blend of loam soil and sand and treated preemergence with a directed soil spray using test chemicals formulated in a non-phytotoxic solvent mixture which included a surfactant. At the same time, plants selected from these crop and weed species and also blackgrass (Alopecurus myosuroides), and galium (catchweed bedstraw, Galium aparine), were planted in pots containing the same blend of loam soil and sand and treated with postemergence applications of test chemicals formulated in the same manner. Plants ranged in height from 2 to 10 cm and were in the one- to two-leaf stage for the postemergence treatment. Treated plants and untreated controls were maintained in a greenhouse for approximately 10 d, after which time all treated plants were compared to untreated controls and visually evaluated for injury. Plant response ratings, summarized in Table A, are based on a 0 to 100 scale where 0 is no effect and 100 is complete control. A dash (-) response means no test result.

[4] = tested on: crabgrass (large crabgrass, Digitaria sanguinalis); test: Test A postemergence, crabgrass; format: in vivo; settings: 1000 g ai/ha, 0 to 100 scale
Excerpt: as §2

[5] = tested on: ducksalad (Heteranthera limosa); test: Test B flooded paddy test, ducksalad; format: in vivo; settings: Flood, 1000 g ai/ha; scale of 0 to 100 where 0 is no effect and 100 is complete control; 13 to 15 d
Method in brief: (§3)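 Plants grown to the 2-leaf stage. At treatment, pots were flooded to 3 cm above the soil, compound was applied directly to the paddy water, and that depth was held throughout. After 13 to 15 d in the greenhouse, response was rated visually against controls on a 0 (no effect) to 100 (complete control) scale.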

[6] = tested on: pigweed (Amaranthus retroflexus); test: Test A preemergence, pigweed; format: in vivo; settings: 1000 g ai/ha, 0 to 100 scale
Method in brief: as §1

[7] = tested on: barnyardgrass (Echinochloa crus-galli); test: Test B flooded paddy test, barnyardgrass; format: in vivo; settings: Flood, 1000 g ai/ha; scale of 0 to 100 where 0 is no effect and 100 is complete control; 13 to 15 d
Method in brief: as §3

[8] = tested on: barnyardgrass (Echinochloa crus-galli); test: Test A preemergence, barnyardgrass; format: in vivo; settings: 1000 g ai/ha, 0 to 100 scale
Method in brief: as §1

[9] = tested on: morningglory (Ipomoea spp.); test: Test A postemergence, morningglory; format: in vivo; settings: 1000 g ai/ha, 0 to 100 scale
Excerpt: as §2

[10] = tested on: wheat (Triticum aestivum); test: Test A postemergence, wheat; format: in vivo; settings: 1000 g ai/ha, 0 to 100 scale
Method in brief: as §1

[11] = tested on: sedge, umbrella (small-flower umbrella sedge, Cyperus difformis); test: Test B flooded paddy test, sedge, umbrella; format: in vivo; settings: Flood, 1000 g ai/ha; scale of 0 to 100 where 0 is no effect and 100 is complete control; 13 to 15 d
Method in brief: as §3

[12] = tested on: rice (Oryza sativa); test: Test B flooded paddy test, rice; format: in vivo; settings: Flood, 1000 g ai/ha; scale of 0 to 100 where 0 is no effect and 100 is complete control; 13 to 15 d
Method in brief: as §3

[13] = tested on: corn (Zea mays); test: Test A preemergence, corn; format: in vivo; settings: 1000 g ai/ha, 0 to 100 scale
Excerpt: as §2

[14] = tested on: wheat (Triticum aestivum); test: Test A preemergence, wheat; format: in vivo; settings: 1000 g ai/ha, 0 to 100 scale
Excerpt: as §2

[15] = tested on: barnyardgrass (Echinochloa crus-galli); test: Test A postemergence, barnyardgrass; format: in vivo; settings: 1000 g ai/ha, 0 to 100 scale (0 no effect, 100 complete control)
Method in brief: as §1

[16] = tested on: crabgrass (large crabgrass, Digitaria sanguinalis); test: Test A preemergence, crabgrass; format: in vivo; settings: 1000 g ai/ha, 0 to 100 scale
Excerpt: as §2

[17] = tested on: foxtail, giant (giant foxtail, Setaria faberii); test: Test A postemergence, foxtail, giant; format: in vivo; settings: 1000 g ai/ha, 0 to 100 scale
Method in brief: as §1

[18] = tested on: corn (Zea mays); test: Test A postemergence, corn; format: in vivo; settings: 1000 g ai/ha, 0 to 100 scale
Method in brief: as §1

[19] = tested on: velvetleaf (Abutilon theophrasti); test: Test A preemergence, velvetleaf; format: in vivo; settings: 1000 g ai/ha, 0 to 100 scale
Excerpt: as §2

[20] = tested on: velvetleaf (Abutilon theophrasti); test: Test A postemergence, velvetleaf; format: in vivo; settings: 1000 g ai/ha, 0 to 100 scale
Excerpt: as §2

Structure (SMILES) | Plant response rating, Pigweed [1] | Plant response rating, Foxtail, Giant [2] | Plant response rating, Morningglory [3] | Plant response rating, Crabgrass [4] | Plant response rating, Ducksalad [5] | Plant response rating, Pigweed [6] | Plant response rating, Barnyardgrass [7] | Plant response rating, Barnyardgrass [8] | Plant response rating, Morningglory [9] | Plant response rating, Wheat [10] | Plant response rating, Sedge, Umbrella [11] | Plant response rating, Rice [12] | Plant response rating, Corn [13] | Plant response rating, Wheat [14] | Plant response rating, Barnyardgrass [15] | Plant response rating, Crabgrass [16] | Plant response rating, Foxtail, Giant [17] | Plant response rating, Corn [18] | Plant response rating, Velvetleaf [19] | Plant response rating, Velvetleaf [20] | further results
O=C1NCC(Cc2cccc(Cl)c2)C1C(=O)Nc1cccc(F)c1F (centres unmarked) [Compound 1, 4-[(3-chlorophenyl)methyl]-N-(2,3-difluorophenyl)-2-oxo-3-pyrrolidinecarboxamide] | 0 | 90 | 0 | 80 | 50 | 0 | 0 | 70 | 0 | 0 | 0 | 0 | 0 | 0 | 80 | 90 | 80 | 0 | 0 | 10 | melting point: 132 to 134 °C
O=C1NCC(Cc2cccc(Cl)c2)C1C(=O)Nc1ccccc1F (centres unmarked) [Compound 2] | 0 | 80 | 0 | 80 | 0 | 0 | 0 | 30 | 0 | 0 | 0 | 0 | 0 | 0 | 30 | 90 | 60 | 0 | 0 | 0 | –
